The source of these data is ChEMBL document CHEMBL3351688, “Studies on the anticonvulsant activity of 4-alkyl-1,2,4-triazole-3-thiones and their effect on GABAergic system” (Eur J Med Chem, 2014).

The nature of data set [1]: Toxicity in Swiss mouse assessed as effect on motor performance administered intraperitoneally 15 mins before test by Chimney test. Format: organism-based. The conditions noted are these: in vivo, ip.
Data set [2] in a line: Protective index, ratio of TD50 in ip Swiss mouse dosed intraperitoneally 120 mins before test by Chimney test to anticonvulsant ED50 in Swiss mouse dosed intraperitoneally 120 mins before test by MES test. The data set is classed as ADME, organism-based. The conditions noted are these: in vivo, read-out: Ratio TD50/ED50.
For data set [3], the system named is Mus musculus. The data set can be described thus: Anticonvulsant activity in Swiss mouse assessed as protection against seizures at 300 mg/kg, ip administered 15 mins before test by maximal electroshock seizure test. Format: functional. The conditions noted are these: route intraperitoneal.
For another data set, the species on record is Rattus norvegicus. Briefly: Displacement of [3H]flunitrazepam form benzodiazepine receptor in rat cerebral cortex assessed as specific radio-ligand binding level at 1 uM incubated for 20 mins by liquid scintillation counting method. Format: tissue-based.
In data set [4] the test system is Mus musculus. The data set can be described thus: Anticonvulsant activity in Swiss mouse assessed as protection against seizures administered intraperitoneally 30 mins before test by maximal electroshock seizure test. Format: functional. The settings on record: ip.
Data set [5] concerns Mus musculus. Briefly: Anticonvulsant activity in Swiss mouse assessed as protection against seizures at 300 mg/kg, ip administered 60 mins before test by maximal electroshock seizure test. Format: functional. The settings on record: route intraperitoneal.
A short description of data set [6]: Protective index, ratio of TD50 in ip Swiss mouse dosed intraperitoneally 15 mins before test by Chimney test to anticonvulsant ED50 in Swiss mouse dosed intraperitoneally 15 mins before test by MES test. Format: ADME, organism-based. The settings on record: in vivo, read-out: Ratio TD50/ED50.
Data set [7] in a line: Protective index, ratio of TD50 in ip Swiss mouse dosed intraperitoneally 30 mins before test by Chimney test to anticonvulsant ED50 in Swiss mouse dosed intraperitoneally 30 mins before test by MES test. Format: ADME, organism-based. The settings on record: in vivo, read-out: Ratio TD50/ED50.
Data set [8] can be described thus: Toxicity in Swiss mouse assessed as effect on motor performance administered intraperitoneally 30 mins before test by Chimney test. Format: organism-based. The settings on record: in vivo, ip.
The test system of data set [9] is Mus musculus. The data set can be described thus: Anticonvulsant activity in Swiss mouse assessed as protection against seizures administered intraperitoneally 15 mins before test by maximal electroshock seizure test. The settings on record: ip. The data set is classed as functional.
Data set [10] can be described thus: Protective index, ratio of TD50 in ip Swiss mouse dosed intraperitoneally 60 mins before test by Chimney test to anticonvulsant ED50 in Swiss mouse dosed intraperitoneally 60 mins before test by MES test. The settings on record: in vivo, read-out: Ratio TD50/ED50. Format: ADME, organism-based.
Data set [11] deals with Mus musculus. The data set can be described thus: Anticonvulsant activity in Swiss mouse assessed as protection against seizures administered intraperitoneally 60 mins before test by maximal electroshock seizure test. The data set is classed as functional. The conditions noted are these: ip.
The nature of data set [12]: Toxicity in Swiss mouse assessed as effect on motor performance administered intraperitoneally 60 mins before test by Chimney test. Format: organism-based. The conditions noted are these: in vivo, ip.
For data set [13], the target named is GABA-A receptor; anion channel (Homo sapiens) (UniProt P14867+P47870+P18507+P28472+P48169+Q99928+Q9UN88+P34903+O00591+O14764+Q8N1C3+P18505+P78334+P47869+P31644+Q16445). Briefly: Displacement of [3H]muscimol form GABAA receptor in rat cerebral cortex assessed as specific radio-ligand binding level at 1 uM incubated for 10 mins by liquid scintillation counting method. Format: tissue-based. The conditions noted are these: target entry is the homologue from another species.

For data set [14], the system named is Mus musculus. The data set can be described thus: Anticonvulsant activity in Swiss mouse assessed as protection against seizures at 300 mg/kg, ip administered 120 mins before test by maximal electroshock seizure test. The conditions noted are these: route intraperitoneal. The data set is classed as functional.
Data set [15] relates to Mus musculus. The data set can be described thus: Anticonvulsant activity in Swiss mouse assessed as protection against seizures administered intraperitoneally 120 mins before test by maximal electroshock seizure test. The settings on record: ip. The data set is classed as functional.
Data set [16] can be described thus: Toxicity in Swiss mouse assessed as effect on motor performance administered intraperitoneally 120 mins before test by Chimney test. The settings on record: in vivo, ip. The data set is classed as organism-based.
For data set [17], the system named is Mus musculus. The data set can be described thus: Anticonvulsant activity in Swiss mouse assessed as protection against seizures at 300 mg/kg, ip administered 30 mins before test by maximal electroshock seizure test. Format: functional. The conditions noted are these: route intraperitoneal.

For the compound `CCCCCCCCCn1c(Cc2cccc(Cl)c2)n[nH]c1=S`, the TD50 at 0.25 h in data set [1] worked out at 476 mg/kg. Besides, the selectivity ratio at 2 h in data set [2] came to 2.3. Besides, the Activity with Mus musculus [3] amounted to 82.5%; in the data set listed under Rattus norvegicus, 0%; in the data set on Mus musculus [5], 100%; in [13] it was 0%; in the data set with Mus musculus [14], 82.5%; in the data set on Mus musculus [17] it was 100%. Also, the ED50 in the data set with Mus musculus [4] was found to be 117 mg/kg; in the data set with Mus musculus [9] it was 193 mg/kg; with Mus musculus [11] it was 86.8 mg/kg; in the data set on Mus musculus [15], 200 mg/kg. In addition, the selectivity ratio at 0.25 h in data set [6] is 2.5. Further, in data set [7], the selectivity ratio at 0.5 h amounted to 4.2. Besides, in data set [8], the TD50 at 0.5 h amounted to 493 mg/kg. Besides, the selectivity ratio at 1 h in data set [10] amounted to 5.7. Also, in data set [12], the TD50 at 1 h came to 493 mg/kg. The TD50 at 2 h in data set [16] was 465 mg/kg.
Consider `CCCCn1c(Cc2cccc(Cl)c2)n[nH]c1=S`, for which the TD50 at 0.25 h in data set [1] turned out to be 326 mg/kg. For the same compound, the selectivity ratio at 2 h in data set [2] stood at 3.2. The Activity with Mus musculus [3] worked out at 100%; in the data set filed under Rattus norvegicus, 0%; in the data set on Mus musculus [5], 100%; in data set [13], 13%; with Mus musculus [14], 100%; in the data set on Mus musculus [17], 100%. For the same compound, the ED50 in the data set on Mus musculus [4] was found to be 43.2 mg/kg; in the data set with Mus musculus [9], 44.5 mg/kg; in the data set on Mus musculus [11], 61.5 mg/kg; in the data set with Mus musculus [15], 102 mg/kg. In addition, in [6], the selectivity ratio at 0.25 h was 7.3. The selectivity ratio at 0.5 h in [7] worked out at 7.2. The TD50 at 0.5 h in [8] stood at 310 mg/kg. In addition, in data set [10], the selectivity ratio at 1 h was found to be 4.8. Besides, the TD50 at 1 h in data set [12] is 298 mg/kg. Further, the TD50 at 2 h in data set [16] was found to be 325 mg/kg.
